# Publication PMC6516660, “Construction of a pathway to C50-ε-carotene” (PLoS ONE, 2019)
# Changes are numbered by the printed parent chain.
# Key:
# Assay in all cases: carotenoid production in E. coli, HPLC-PDA-MS
# Type in all cases: cell-based
# [1] = biological target: T1, LsE (Lactuca sativa, UniProt Q9AXK7); settings: E. coli making C40-lycopene; product ε,ε-carotene
# T1 construct: pUCara plasmid, expressed in E. coli XL1-Blue with carotenoid pathway enzymes
# T1 sequence (Q9AXK7 1-533 limits assumed): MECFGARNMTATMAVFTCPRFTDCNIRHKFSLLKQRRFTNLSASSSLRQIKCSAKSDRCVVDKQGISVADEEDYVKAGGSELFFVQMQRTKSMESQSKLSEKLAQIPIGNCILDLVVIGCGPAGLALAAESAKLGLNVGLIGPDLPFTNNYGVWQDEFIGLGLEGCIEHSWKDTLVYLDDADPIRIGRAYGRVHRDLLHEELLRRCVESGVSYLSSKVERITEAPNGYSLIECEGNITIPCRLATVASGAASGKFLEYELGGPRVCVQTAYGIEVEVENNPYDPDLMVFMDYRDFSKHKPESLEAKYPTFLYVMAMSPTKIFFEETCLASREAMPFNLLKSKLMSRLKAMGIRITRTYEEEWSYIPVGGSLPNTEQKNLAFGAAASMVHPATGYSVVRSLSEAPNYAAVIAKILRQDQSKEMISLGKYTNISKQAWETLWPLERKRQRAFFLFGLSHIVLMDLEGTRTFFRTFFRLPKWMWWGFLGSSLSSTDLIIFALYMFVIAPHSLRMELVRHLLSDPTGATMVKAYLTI
# [2] = biological target: T2, AtE (At-y2) (Arabidopsis thaliana, UniProt Q38932)
# T2 construct: gene LUT2; full-length (transit peptide kept), pUCara plasmid, expressed in E. coli XL1-Blue with carotenoid pathway enzymes
# T2 sequence (Q38932 1-524): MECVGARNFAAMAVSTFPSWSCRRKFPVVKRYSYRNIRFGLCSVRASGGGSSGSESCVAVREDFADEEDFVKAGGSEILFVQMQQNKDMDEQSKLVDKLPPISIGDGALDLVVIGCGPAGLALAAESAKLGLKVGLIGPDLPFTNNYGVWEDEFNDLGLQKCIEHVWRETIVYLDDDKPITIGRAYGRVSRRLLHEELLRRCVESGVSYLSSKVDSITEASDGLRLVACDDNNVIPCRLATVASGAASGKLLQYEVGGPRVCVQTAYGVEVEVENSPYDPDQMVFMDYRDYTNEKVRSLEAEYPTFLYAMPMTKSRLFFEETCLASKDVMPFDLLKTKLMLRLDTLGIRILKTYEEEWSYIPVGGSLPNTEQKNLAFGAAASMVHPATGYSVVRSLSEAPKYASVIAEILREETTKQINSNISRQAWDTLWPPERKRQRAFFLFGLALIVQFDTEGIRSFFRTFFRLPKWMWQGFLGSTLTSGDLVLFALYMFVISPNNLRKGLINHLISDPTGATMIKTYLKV
# [3] = biological target: T3, AtE (At-y2) (Arabidopsis thaliana, UniProt Q38932, L448H); settings: E. coli making C40-lycopene
# T3 construct: gene LUT2; full-length (transit peptide kept), pUCara plasmid, expressed in E. coli XL1-Blue with carotenoid pathway enzymes
# T3 sequence (Q38932 1-524 L448H): T2 sequence (Q38932 1-524) with L448H
Compound,"carotenoid production in E. coli, HPLC-PDA-MS [1]","carotenoid production in E. coli, HPLC-PDA-MS ([2]; E. coli making C40-lycopene, product δ-carotene (ε,ψ-carotene))","carotenoid production in E. coli, HPLC-PDA-MS [3]","carotenoid production in E. coli, HPLC-PDA-MS ([2]; E. coli making C50-lycopene, TB medium, L-arabinose induction, product C50-ε,ε-carotene)"
CC(C)=CCC/C(C)=C/C=C/C(C)=C/C=C/C(C)=C/C=C/C=C(C)/C=C/C=C(C)/C=C/C=C(\C)CCC=C(C)C [C40-lycopene],LsE could equally and efficiently act on both sides of C40-lycopene (Fig 3B),"this enzyme fully consumed its natural substrate C40-lycopene and yielded ε, ψ-carotene",very subtle effect (if not none) of L448H also in the natural C40 pathway,
CC(C)=CCC/C(C)=C/C=C/C(C)=C/C=C/C(C)=C/C=C/C(C)=C/C=C/C=C(C)/C=C/C=C(C)/C=C/C=C(C)/C=C/C=C(\C)CCC=C(C)C [C50-lycopene],,,,AtE cyclized both ends of the C50-lyopene (Fig 2C)
